Test results reported in patent US9409122B2, “Gas capture process” (Commonwealth Scientific and Industrial Research Organisation, priority 2011, dated 2016).

Assay: CO2 desorption at 90° C.
Assay type: physicochemical
Protocol: The test results (shown in the accompanying figures) are a comparison of four compounds within general formula (I) with 4-aminopiperidine in terms of their CO2 absorption at 40° C. (FIG. 2(a)) and CO2 desorption at 90° C. (FIG. 2(b)). These absorption experiments were carried with CO2 gas (99%).
In FIG. 3, CO2 absorption and desorption results for Compounds 1 to 4 and 4-aminopiperidine (2M and 1.7M in one case due to the material availability) were compared with MEA (4M) and piperazine (Pz) (2M). An MEA concentration of 4M was chosen in this comparison to match the total amine/nitrogen concentration of diamines (2×2M).

stability of carbamate: reasonably stable
Compound: C1CNCCN1 [Pz, piperazine]
